This note sets out measurements from US5661182A, “Method for lowering oxygen affinity of hemoglobin in redcell suspensions, in whole blood and in vivo” (Virginia Commonwealth University, priority 1995, dated 1997).

Entries after “also recorded” stand apart in the source; their conditions may differ.

One series concerns the target stored human RBCs (Homo sapiens, UniProt P68871+P69905). Kind of series: Outdated blood studies: oxygen dissociation curves of stored red blood cells. The class given is cell-based. As to conditions: for p50 / ΔY [Y(90%)-Y(40%)]: 40-day-old stored human RBCs. As for the experimental part: Outdated Blood Studies. For the outdated blood studies, 40-day-old packed red cells (80% hematocrit) were obtained from the blood bank at the Medical College of Virginia, Richmond, Va. The cells had been stored in Adsol formulation at 1°-4° C., pH 6.84. Fresh red cells obtained from volunteers were used for the control studies in Table III. The fresh red blood cells were centrifuged and washed with saline, pH 6.8. The oxygen dissociation curves were recorded on an Aminco Hem-O-Scan (Travenol Laboratories).
Outdated Blood Studies. The capability of RSR-13 to restore the oxygen affinity of stored blood was investigated. The procedure involved measurement of the oxygen equilibrium curves on red cell suspensions, which were stored in Adsol formulations at 4° C., in either the absence (controls) or presence of RSR-13. Table 3 presents the p50 (mmHg) and ΔY (%) [Y(90%)-Y(40%)] for outdated red blood cell suspensions (forty days) in the presence or absence of RSR-13.

For another series, the system named is rat erythrocytes. Kind of series: Hemolysis of rat erythrocytes.
In another series the test system is bovine red cells. Kind of series: Hemolysis of bovine red cells in vitro. The class given is cell-based.

Chain of stored human RBCs (P69905 whole entry): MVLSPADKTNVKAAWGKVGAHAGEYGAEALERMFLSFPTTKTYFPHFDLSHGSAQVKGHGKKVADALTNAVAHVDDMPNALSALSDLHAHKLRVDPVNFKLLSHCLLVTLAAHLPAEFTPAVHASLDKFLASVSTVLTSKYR
Chain of stored human RBCs (P68871 whole entry): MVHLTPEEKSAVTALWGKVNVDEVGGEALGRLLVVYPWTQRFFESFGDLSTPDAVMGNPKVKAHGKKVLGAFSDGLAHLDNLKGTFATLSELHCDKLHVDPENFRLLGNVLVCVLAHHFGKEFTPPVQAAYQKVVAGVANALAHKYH

Take `Cc1cc(C)cc(NC(=O)Cc2ccc(OC(C)(C)C(=O)O)cc2)c1` [RSR-13]: the “pH of RBC solution versus untreated samples” value at stored human RBCs (4 mM) is reported as “higher than that of untreated samples”. For the same compound, the “restoration / preservation of oxygen transport capabilities” value at stored human RBCs (40-day-old RBC, 1 mM, or added prior to measurements or during storage) was “able to restore, to near normal the oxygen transport capabilities (p50 and ΔY) of 40-day-old red blood cells; also recorded: preserved the oxygen delivery capabilities of red cell hemoglobin”. Further, at stored human RBCs (1 mM), the p50 is given as 39 mm Hg and the “ΔY [Y(90%)-Y(40%)]” value is 37%. For the same compound, on stored human RBCs (2 mM), the p50 is on record as 45 mm Hg and the “ΔY [Y(90%)-Y(40%)]” value is reported as 40%. Further, the hemolysis result on stored human RBCs (stored human red cells, end of experiments) is “no indication of hemolysis”.
As to `CC(C)(Oc1ccc(CC(=O)Nc2cc(Cl)cc(Cl)c2)cc1)C(=O)O` [RSR-4, 2-[4-[[(3,5-dichloroanilino)carbonyl]methyl]phenoxy]-2-methylpropionic acid], the values for the hemolysis result in the series with rat erythrocytes and with bovine red cells were “Significant hemolysis” and “No hemolysis”, respectively.
